Data published in BindingDB's records for patent US11739090 (Jumbo Drug Bank, 2023).

Tests used:
[1] = biological target: Tyrosine-protein kinase BTK (Homo sapiens, UniProt Q06187); experiment: BTK Kinase Assay
Procedure: (§1) 1. Reaction conditions: buffer conditions: 20 mM HEPES (pH 7.5), 10 mM MgCl2, 1 mM EGTA, 0.02% Brij35, 0.02 mg/mL BSA, 0.1 mm Na3VO4, 2 mm DTT, 1% DMSO.2. Reaction procedure:2.1. Preparing an indicator substrate in a freshly prepared reaction buffer 2.2. Delivering the desired cofactor to the above substrate solution 2.3. Delivering the indicated kinase to the substrate solution and gently mixing same 2.4. Delivering the compounds in DMSO to the kinase reaction mixture using acoustic technology (Echo550) 2.5. Initiating the reaction (final concentration of ATP: 5 μM) by delivering 33P-ATP (final specific activity: 0.01 μci/μL) to the reaction mixture 2.6. Incubating the kinase reaction at room temperature for 120 minutes 2.7. Recording the reaction on P81 ion exchange paper (Whatman #3698-915) 2.8. Washing the filter widely with 0.75% phosphoric acid 2.9. Measuring the radioactive phosphorylated substrate remaining on the filter paper. 3.Data analysis: the kinase activity data is expressed as the percentage of the remaining kinase activity in a test sample compared to a reaction with a carrier (dimethyl sulfoxide), and IC50 values and curve fitting are obtained using Prism4 software (GraphPad).

[2] = biological target: Epidermal growth factor receptor (Homo sapiens, UniProt P00533); experiment: EGFR, ITK and TEC Kinase Assay
Sequence of Epidermal growth factor receptor (P00533 whole entry): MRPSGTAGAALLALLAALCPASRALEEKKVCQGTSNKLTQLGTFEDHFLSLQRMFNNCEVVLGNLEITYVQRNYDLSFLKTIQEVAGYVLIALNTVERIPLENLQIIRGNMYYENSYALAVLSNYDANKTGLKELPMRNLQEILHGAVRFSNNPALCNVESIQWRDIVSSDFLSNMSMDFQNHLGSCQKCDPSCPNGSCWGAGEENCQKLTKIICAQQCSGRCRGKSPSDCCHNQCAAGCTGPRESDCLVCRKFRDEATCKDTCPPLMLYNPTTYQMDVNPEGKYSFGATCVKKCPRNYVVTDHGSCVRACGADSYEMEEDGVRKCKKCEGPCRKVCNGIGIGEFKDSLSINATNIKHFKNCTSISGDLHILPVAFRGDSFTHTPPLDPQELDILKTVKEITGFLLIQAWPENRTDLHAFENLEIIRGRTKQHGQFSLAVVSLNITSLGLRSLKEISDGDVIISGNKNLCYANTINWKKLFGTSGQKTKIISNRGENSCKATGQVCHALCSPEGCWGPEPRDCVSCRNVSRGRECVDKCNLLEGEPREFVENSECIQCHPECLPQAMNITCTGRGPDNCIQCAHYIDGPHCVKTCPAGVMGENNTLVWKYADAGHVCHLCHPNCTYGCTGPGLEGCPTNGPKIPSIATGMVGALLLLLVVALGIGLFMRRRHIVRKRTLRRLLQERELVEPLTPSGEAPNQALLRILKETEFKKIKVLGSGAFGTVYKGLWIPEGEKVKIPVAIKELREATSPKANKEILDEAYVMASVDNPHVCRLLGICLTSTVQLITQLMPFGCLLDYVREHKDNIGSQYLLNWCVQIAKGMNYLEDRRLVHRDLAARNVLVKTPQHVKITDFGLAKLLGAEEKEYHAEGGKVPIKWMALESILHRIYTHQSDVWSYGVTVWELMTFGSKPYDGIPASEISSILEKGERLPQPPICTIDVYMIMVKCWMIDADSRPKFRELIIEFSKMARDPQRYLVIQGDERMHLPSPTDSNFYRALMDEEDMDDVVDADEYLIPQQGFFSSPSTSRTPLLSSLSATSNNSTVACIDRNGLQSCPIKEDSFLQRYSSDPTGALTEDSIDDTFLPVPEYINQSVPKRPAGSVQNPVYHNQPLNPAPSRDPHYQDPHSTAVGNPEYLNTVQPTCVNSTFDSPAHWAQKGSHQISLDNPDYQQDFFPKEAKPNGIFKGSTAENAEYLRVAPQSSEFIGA
Procedure: as §1, with “DMSO. 2.” for “DMSO.2.”, “ATP: 2 μM,” for “ATP:”, “μM and 5 μM respectively)” for “μM)”, “3. Data” for “3.Data”

[3] = biological target: T1, Tyrosine-protein kinase Tec (Homo sapiens, UniProt P42680)
T1 sequence (P42680 whole entry): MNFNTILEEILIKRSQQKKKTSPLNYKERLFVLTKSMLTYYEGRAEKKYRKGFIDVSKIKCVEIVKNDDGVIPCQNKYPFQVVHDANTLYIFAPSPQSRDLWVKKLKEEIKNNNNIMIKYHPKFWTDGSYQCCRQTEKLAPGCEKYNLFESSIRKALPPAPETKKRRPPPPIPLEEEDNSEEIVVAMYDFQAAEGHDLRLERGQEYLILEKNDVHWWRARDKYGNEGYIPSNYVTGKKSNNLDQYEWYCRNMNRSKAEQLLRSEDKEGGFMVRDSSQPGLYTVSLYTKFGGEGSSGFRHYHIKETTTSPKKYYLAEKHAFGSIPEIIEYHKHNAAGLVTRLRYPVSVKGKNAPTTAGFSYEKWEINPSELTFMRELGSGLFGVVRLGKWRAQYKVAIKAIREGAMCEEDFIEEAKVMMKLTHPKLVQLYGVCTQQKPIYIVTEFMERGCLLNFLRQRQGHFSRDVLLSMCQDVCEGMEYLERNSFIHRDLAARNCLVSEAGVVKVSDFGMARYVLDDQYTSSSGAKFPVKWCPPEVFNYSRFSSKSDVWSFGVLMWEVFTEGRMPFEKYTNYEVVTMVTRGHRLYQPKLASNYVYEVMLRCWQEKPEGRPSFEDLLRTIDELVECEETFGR

[4] = biological target: T2, Tyrosine-protein kinase ITK/TSK (Homo sapiens, UniProt Q08881)
T2 sequence (Q08881 whole entry): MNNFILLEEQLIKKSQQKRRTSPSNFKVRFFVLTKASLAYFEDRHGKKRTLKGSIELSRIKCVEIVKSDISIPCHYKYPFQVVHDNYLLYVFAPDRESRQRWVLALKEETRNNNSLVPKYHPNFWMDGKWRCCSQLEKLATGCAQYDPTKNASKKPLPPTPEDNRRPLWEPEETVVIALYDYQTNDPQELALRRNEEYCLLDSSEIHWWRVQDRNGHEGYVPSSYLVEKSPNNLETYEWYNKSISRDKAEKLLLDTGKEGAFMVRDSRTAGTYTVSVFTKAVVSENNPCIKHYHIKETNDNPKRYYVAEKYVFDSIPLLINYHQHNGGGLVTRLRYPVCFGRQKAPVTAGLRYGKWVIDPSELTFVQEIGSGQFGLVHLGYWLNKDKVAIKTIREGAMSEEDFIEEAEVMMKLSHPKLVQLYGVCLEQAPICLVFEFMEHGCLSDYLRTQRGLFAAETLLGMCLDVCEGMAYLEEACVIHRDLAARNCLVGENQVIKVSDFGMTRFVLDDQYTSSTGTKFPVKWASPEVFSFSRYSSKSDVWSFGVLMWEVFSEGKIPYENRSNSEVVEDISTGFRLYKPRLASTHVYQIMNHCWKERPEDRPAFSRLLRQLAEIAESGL

Sequence of Tyrosine-protein kinase BTK (Q06187 whole entry): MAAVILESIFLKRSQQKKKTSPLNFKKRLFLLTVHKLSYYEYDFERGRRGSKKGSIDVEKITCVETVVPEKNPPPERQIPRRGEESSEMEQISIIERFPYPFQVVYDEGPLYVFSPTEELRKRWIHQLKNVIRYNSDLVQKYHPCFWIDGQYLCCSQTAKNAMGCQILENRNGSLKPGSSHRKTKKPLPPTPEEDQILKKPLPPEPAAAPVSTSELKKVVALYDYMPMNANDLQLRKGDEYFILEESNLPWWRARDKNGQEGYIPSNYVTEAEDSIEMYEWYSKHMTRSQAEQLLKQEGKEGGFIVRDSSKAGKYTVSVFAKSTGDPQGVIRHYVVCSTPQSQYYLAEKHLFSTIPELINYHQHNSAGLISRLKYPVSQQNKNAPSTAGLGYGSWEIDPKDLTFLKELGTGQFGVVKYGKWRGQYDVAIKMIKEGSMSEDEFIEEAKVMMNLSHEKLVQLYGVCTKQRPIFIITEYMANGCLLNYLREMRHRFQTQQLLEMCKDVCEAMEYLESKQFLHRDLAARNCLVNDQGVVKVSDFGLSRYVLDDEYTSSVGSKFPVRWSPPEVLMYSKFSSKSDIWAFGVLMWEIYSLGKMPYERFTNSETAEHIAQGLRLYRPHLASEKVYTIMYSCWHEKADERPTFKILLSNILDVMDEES

SMILES	IC50 [1]	IC50 [2]	IC50 [3]	IC50 [4]
C=CC(=O)N1CCC[C@H](c2nn(-c3ccc(Oc4ccccc4)cc3)c3c(N)nccc23)C1 [US11739090, Compound 7B]	0.93 nM	33.3 nM	3.74 nM	1450 nM
C=CC(=O)N1CCC[C@@H](c2nn(-c3ccc(Oc4ccccc4)cc3)c3c(N)nccc23)C1 [US11739090, Compound 7A]	0.73 nM	14.5 nM	3.39 nM	42.2 nM
